Patent publication US6239171A, “Tocotrienols and tocotrienol-like compounds and methods for their use” (Lipogenics, Inc., priority 1998, dated 2001)

Assays:
[1] = system: hypercholesterolemic swine; test: Serum cholesterol, apolipoproteins, triglycerides, glucose, insulin and glucagon in hypercholesterolemic swine; format: in vivo
Method: All assays conducted on chicken or swine serum were done following the protocols described in A. A. Qureshi et al., "Lowering Of Serum Cholesterol In Hypercholesterolemic Humans By Tocotrienols" (Palmvitee), Am. […] Plasma insulin, glucagon and TNF levels were measured using radioinnumoassay kits from Ventrex Laboratories, Inc. (Portland, Me.), ICN Biomedicals, Inc. (Costa Mesa, Calif.) and Genzyme Corp. (Cambridge, Mass.), respectively.
We next measured the effects of various tocotrienols from rice bran on HMG-CoA reductase and cholesterol 7α-hydroxylase in hypercholesterolemic swine. Since pigs are very similar to humans in their cholesterol metabolism, they provide a useful model from which to study hypercholesterolemia and related diseases. […] As a result, the pigs develop complicated atherosclerotic plaques that closely resemble advanced atherosclerotic lesions found in humans.
Each group of three 5-month old swine was administered either a control diet or a control diet supplemented with 50 ppm of TRF or 50 ppm of an individual tocotrienol. […] After a 12 hour fast, serum and plasma samples were taken a 0 hrs, 21 days and 42 days from the start of the feeding period. After taking serum and plasma samples from the pigs at the end of the 42 day period, all of the swine were fasted for a total of 40 hours, followed by a 48 hour refeeding period. One swine from each group was sacrificed at that time and the liver, intestine, lung, heart, loin muscle, adipose tissue and ham muscle were removed.
The experimental conditions were the same, except that the two remaining swine in each group were transferred to the unsupplemented control diet following the 42 day feeding period. After an additional 70 days, serum and plasma samples were collected from these swine after a 12 hour fast for testing.

[2] = system: cholesterol 7α-hydroxylase; test: Hepatic cholesterol 7α-hydroxylase activity in chickens fed supplemented diets; format: in vivo, chicken; conditions: control diet + 50 ppm, 4 weeks
Method: (§1) This example measured the effects of the TRF and its components on the hepatic enzymatic activity of HMG-CoA reductase and cholesterol 7α-hydroxylase. […] The amount of feed consumed ranged from 11.19-11.60 g per chicken and the feeding period was 4 weeks. The birds were fasted for a period of 36 hours and refed for 48 hours prior to sacrifice (at 0800 hours).

chickens = test: Plasma thromboxane B2 and platelet factor 4 in chickens fed supplemented diets; format: in vivo, chicken; conditions: control diet + 50 ppm, 4 weeks
Text: We next measured the effects of TRF and its components on serum levels of apolipoprotein (a)1, apolipoprotein B, triglycerides and glucose and the plasma levels of thromboxane B2 and platelet factor 4.

HMG-CoA reductase = biological target: T1, HMG-CoA reductase (Homo sapiens, UniProt P04035); test: Hepatic HMG-CoA reductase activity in chickens fed supplemented diets; format: in vivo, chicken; conditions: control diet + 50 ppm, 4 weeks
T1 construct: hepatocytes isolated from livers of 8-week old female chickens; endogenous in cells; host or cells: primary chicken hepatocytes
T1 sequence (P04035 1-888): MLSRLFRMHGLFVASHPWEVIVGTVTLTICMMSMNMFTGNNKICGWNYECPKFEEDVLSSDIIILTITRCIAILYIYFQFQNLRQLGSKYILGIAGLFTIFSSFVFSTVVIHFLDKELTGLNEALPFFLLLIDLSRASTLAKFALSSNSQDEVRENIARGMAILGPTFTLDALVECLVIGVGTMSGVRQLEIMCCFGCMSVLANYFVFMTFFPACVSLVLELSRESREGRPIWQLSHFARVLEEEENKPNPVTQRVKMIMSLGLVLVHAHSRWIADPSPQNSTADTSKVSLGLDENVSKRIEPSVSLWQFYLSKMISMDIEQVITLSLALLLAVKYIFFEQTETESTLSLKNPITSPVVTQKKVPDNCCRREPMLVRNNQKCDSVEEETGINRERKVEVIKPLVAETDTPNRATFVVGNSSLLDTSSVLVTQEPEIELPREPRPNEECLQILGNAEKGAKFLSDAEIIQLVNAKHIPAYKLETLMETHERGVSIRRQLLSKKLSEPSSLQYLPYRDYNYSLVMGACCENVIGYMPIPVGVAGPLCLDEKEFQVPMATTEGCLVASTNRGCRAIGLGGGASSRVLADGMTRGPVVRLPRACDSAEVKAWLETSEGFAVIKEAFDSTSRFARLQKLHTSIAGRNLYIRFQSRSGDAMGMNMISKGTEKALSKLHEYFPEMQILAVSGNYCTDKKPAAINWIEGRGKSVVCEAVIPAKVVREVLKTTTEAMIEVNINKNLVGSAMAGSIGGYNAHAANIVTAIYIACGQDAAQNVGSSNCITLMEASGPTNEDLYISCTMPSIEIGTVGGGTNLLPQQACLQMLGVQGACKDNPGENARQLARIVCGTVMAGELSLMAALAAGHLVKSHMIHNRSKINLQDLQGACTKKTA
Method: as §1

[3] = 70 days on control diet after 42 days at 50 ppm

## CC(C)=CCC/C(C)=C/CC/C(C)=C/CCC1(C)CCc2cc(O)ccc2O1 (centres unmarked) [P21, 3,4-dihydro-2-methyl-2-(4,8,12-trimethyltrideca-3' (E),7'(E),11'-trienyl)-2H-1-benzopyran-6-ol]
[1]; [3]
  HDL-CHOLESTEROL CONCENTRATION IN SERUM: 31.15 mg/100 ml
  HDL-CHOLESTEROL, Percentage of Control Activity: 103.50%
  HDL-CHOLESTEROL, percentage of baseline value: 135.72%
  HDL:LDL CHOLESTEROL, Percentage of Control Activity: 83.83%
  LDL-CHOLESTEROL CONCENTRATION IN SERUM: 227.82 mg/100 ml
  LDL-CHOLESTEROL, Percentage of Control Activity: 88.02%
  LDL-CHOLESTEROL, percentage of baseline value: 125.11%
  TOTAL CHOLESTEROL CONCENTRATION IN SERUM: 276.23 mg/100 ml
  TOTAL CHOLESTEROL, Percentage of Control Activity: 76.20%
  TOTAL CHOLESTEROL, percentage of baseline value: 125.39%
[1]; control diet + 50 ppm, 6 weeks
  Apo A1, percentage of control: 104.01%
  Apo A1 concentration in serum: 26.72 ± 1.14 mg/100 ml
  Apo B concentration in serum: 111.78 ± 1.80 mg/100 ml
  Apo B, percentage of control: 75.64%
  Triglycerides concentration in serum: 64.44 mg/100 ml
  Triglycerides, percentage of control: 84.17%
[1]; control diet + 50 ppm, 21 days
  HDL-CHOLESTEROL CONCENTRATION IN SERUM: 26.23 mg/100 ml
  HDL-CHOLESTEROL, percentage of baseline value: 114.29%
  HDL:LDL CHOLESTEROL, percentage of baseline value: 93.32%
  LDL-CHOLESTEROL CONCENTRATION IN SERUM: 194.17 mg/100 ml
  LDL-CHOLESTEROL, percentage of baseline value: 106.63%
  TOTAL CHOLESTEROL CONCENTRATION IN SERUM: 236.40 mg/100 ml
  TOTAL CHOLESTEROL, percentage of baseline value: 107.20%
[1]; control diet + 50 ppm, 42 days
  Glucagon: 278.36 pg/mL
  Glucagon, percentage of control: 84.25%
  Glucose: 72.63 mg/100 ml
  Glucose, percentage of control: 75.66%
  HDL-CHOLESTEROL CONCENTRATION IN SERUM: 30.74 mg/100 ml
  HDL-CHOLESTEROL, Percentage of Control Activity: 113.90%
  HDL-CHOLESTEROL, percentage of baseline value: 133.94%
  HDL:LDL CHOLESTEROL, Percentage of Control Activity: 57.82%
  HDL:LDL CHOLESTEROL, percentage of baseline value: 81.59%
  Insulin: 21.4 µU/mL
  Insulin, percentage of control: 104.63%
  LDL-CHOLESTEROL CONCENTRATION IN SERUM: 198.76 mg/100 ml
  LDL-CHOLESTEROL, Percentage of Control Activity: 66.53%
  LDL-CHOLESTEROL, percentage of baseline value: 109.15%
  TOTAL CHOLESTEROL CONCENTRATION IN SERUM: 238.17 mg/100 ml
  TOTAL CHOLESTEROL, Percentage of Control Activity: 68.90%
  TOTAL CHOLESTEROL, percentage of baseline value: 108.20%
[2]
  Cholesterol 7α-Hydroxylase, percentage of control: 112.43%
  Cholesterol 7α-hydroxylase: 11.49 nmol/min/mg
chickens
  Platelet Factor 4: 7.76 ng/mL
  Platelet Factor 4, percentage of control: 59.28%
  Thromboxane B2: 16.74 pg/mL
  Thromboxane B2, percentage of control: 64.78%
HMG-CoA reductase
  HMG-CoA Reductase, percentage of control: 72.83%
